In article PMC7835349 (Communications Biology, 2021):
Values joined by “and” are separate entries in the source; they are usually repeats but may differ in a detail not shown here. Equal entries are not always repeated.

Experiments:
[1] = Tumour pharmacokinetics (released and total AZD4320) in RS4;11 tumours; assay type: in vivo, C.B-17 SCID mouse
From the text: For tumour measurements, tumours were harvested, split into smaller pieces and snap frozen in liquid nitrogen. Frozen tumour samples were subsequently weighed and then homogenised for both ‘released’ and ‘total’ AZD4320. For ‘released’ AZD4320, samples were homogenised on ice with an equal volume (w/v) of blank plasma containing 0.2 M citric acid. The samples were then processed according to the aforementioned plasma approach. For ‘total’ AZD4320, samples were homogenised with an equal volume of plasma (w/v) and then processed according to the aforementioned ‘total’ approach.
Sample analyses were performed in batches containing study samples, calibration standards at 10 concentration levels, QC samples at three concentration levels in duplicate and blank samples. The analytical run acceptance criteria for calibration standards and QC samples was that at least 75% of back-calculated concentrations for calibration standards and at least 2/3 of the QC samples (at least 50% at each concentration level) should be within ±20% (±25% at LLOQ) from nominal value.
(§1) Female C.B.−17 SCID mice were purchased from Charles River Laboratories. Mice were 5–8 weeks old at the time of tumour implantation. All xenograft studies were conducted at our Association for the Assessment and Accreditation of Laboratory Animal Care accredited facility in Waltham, MA in accordance with ethical regulations described in the guidelines established by the internal Institutional Animal Care and Use Committee. The dendrimer conjugates were formulated in citrate/phosphate buffer pH 5.0, diluted 1:10 with 5% glucose containing 1% w/v Kolliphor HS15, and AZD4320 was formulated in 30% HP-β-CD and dosed as a weekly intravenous (IV) administration at a volume of 5 ml/kg at the indicated doses. Five million RS4;11, five million SUDHL-4 or five million OCI-LY-10 cells were injected subcutaneously in the right flank of mice in a volume of 0.1 ml. Tumour volumes (measured by caliper), animal body weight, and tumor condition were recorded twice weekly for the duration of the study. The tumour volume was calculated (taking length to be the longest diameter across the tumour and width to be the corresponding perpendicular diameter) using the formula: length (mm) x width (mm)^2/0.52. For efficacy studies, mice were randomized based on tumour volumes using stratified sampling and enrolled into control and treatment groups. Tumour growth inhibition from the start of treatment was quantified by measuring the difference in tumour volume between control and treated groups. Survival analysis was evaluated using Mantel-Cox test. Tumours were also taken for bioanalysis.

[2] = system: RS4;11 xenograft; test: RS4;11 mouse xenograft efficacy (tumour volume); assay type: in vivo, C.B-17 SCID mouse; design: key to tumour volume, individual animals: tumour volume in mm³, length × width²/0.52; conditions: for tumour volume, individual animals: 10 mg/kg; for Tumour volume, Geo Mean: RS4;11 xenograft
Experimental: as §1

[3] = system: cleaved caspase-3 (CC3); test: Cleaved caspase-3 in RS4;11 tumours by MSD ELISA; assay type: in vivo, C.B-17 SCID mouse; conditions: for CC3 PD fold over vehicle, individual tumours: RS4;11, single dose 10 mg/kg or equivalent
Experimental: Tumours were excised, snap frozen in liquid nitrogen and stored at –80 °C. Tumours were homogenised in lysis buffer containing protease and phosphatase inhibitors, protein concentration determined by Pierce BCA Protein Assay Kit and diluted in lysis buffer to a protein concentration of 0.4 μg/μL. Cleaved caspase-3 (CC3) was measured using the mesoscale cleaved caspase-3 (Asp175) assay whole cell lysate kit according to manufacturer’s instructions. Induction of CC3 was expressed as fold change of treated tumours over vehicle control.

[4] = system: telemetered rats; test: Conscious rat telemetry (QRS amplitude, blood pressure, tolerability); conditions: for QRS amplitude (mV change): individual rats; for QRS amplitude (mV change), Mean: mean of rats;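 for all read-outs here: male Han Wistar rats carrying implanted telemetry transmitters, with ECG and arterial pressure recorded continuously while unrestrained in their home cage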
From the text: Male Han Wistar rats were implanted with HD‐S11 transmitters (Data Sciences International, St. Paul, MN USA) under isoflurane anaesthesia, the telemetry transmitter was placed in the peritoneal cavity, the arterial blood pressure catheter was placed in the terminal abdominal aorta and the ECG electrodes were sutured, one at the dorsal surface of the xiphoid process and one at the anterior mediastinum, close to the right atrium[42]. Animals were allowed to recover for at least 2 weeks and were around 2–3 months at the time of experimentation. The animals were pair‐housed in standard rat cages with a non‐instrumented companion throughout the study. Cages were prepared with bedding material and enrichment.
Telemetry recordings took place in the home cage. […] The animals were removed from the cage temporarily for dosing and blood sampling. Animals were not subject to restraint except where dosing and blood sampling was performed. Data acquisition used Dataquest Open A.R.T.™ with HEM software version 4.2 (Notocord Inc).
For evaluation of AZD4320, n = 8 rats received single doses of 0 (vehicle: 30% Kleptose, pH9) or 10 mg/kg AZD4320, administered as a 30-min intravenous infusion. A cross-over study design was used, with an interval of 7 days between treatments.
Data for all parameters were collected continuously during the recording period. The continuous data from each animal was binned into chosen time intervals of varying length and averaged to generate a single data point for each reported nominal time. Each reported nominal timepoint was then averaged across each of the animals tested for each dose level.

[5] = RS4;11 tumours, 10 mg/kg or equivalent
[6] = rat, AZD4320 10 mg/kg, 0 h post dose
[7] = rat, Dose 10 mg/kg (AZD4320 equivalent 10 for AZD4320, 3 for conjugates)

## CN(CCO)CCC(CSc1ccccc1)Nc1ccc(S(=O)(=O)NC(=O)c2ccc(N3CCC(C(O)c4ccccc4-c4ccc(Cl)cc4)CC3)cc2)cc1S(=O)(=O)C(F)(F)F (centres unmarked) [AZD4320]
[1]; RS4;11, single dose 10 mg/kg or equivalent, 0.5 h, 10 mg/kg
  Tumor PK Released AZD4320, individual tumours: 910 ng/g
[1]; RS4;11, single dose 10 mg/kg or equivalent, 1 h, 10 mg/kg
  Tumor PK Released AZD4320, individual tumours: 813 ng/g
[1]; RS4;11, single dose 10 mg/kg or equivalent, 5 h, 10 mg/kg
  Tumor PK Released AZD4320, individual tumours: 1290 ng/g and 307 ng/g
[1]; RS4;11, single dose 10 mg/kg or equivalent, 24 h, 10 mg/kg
  Tumor PK Released AZD4320, individual tumours: 232 ng/g
[1]; [5]
  time of maximum (released) AZD4320 concentration in tumour: ≤ 0.5 h
[1]; female, C.B-17 SCID, mouse, tumour (RS4;11 xenograft), intravenous, 10 mg/kg, RS4;11, single dose 10 mg/kg or equivalent, 0.5 h, read-out: Tumor PK released AZD4320, individual tumours
  concentration at 0.5 h: 1360 ng/g
[1]; female, C.B-17 SCID, mouse, tumour (RS4;11 xenograft), intravenous, 10 mg/kg, RS4;11, single dose 10 mg/kg or equivalent, 1 h, read-out: Tumor PK released AZD4320, individual tumours
  concentration at 1 h: 1220 ng/g
[1]; female, C.B-17 SCID, mouse, tumour (RS4;11 xenograft), intravenous, 10 mg/kg, RS4;11, single dose 10 mg/kg or equivalent, 24 h, read-out: Tumor PK released AZD4320, individual tumours
  concentration at 24 h: 359 ng/g
[2]; Day 38, in mm³ (unit assumed)
  tumour volume, individual animals: 591 and 667 and 633 and 678
[2]; Day 41, in mm³ (unit assumed)
  tumour volume, individual animals: 365 and 322 and 378 and 334
[2]; Day 45, in mm³ (unit assumed)
  tumour volume, individual animals: 218 and 235 and 397 and 259
[2]; Day 48
  tumour volume, individual animals: 0 (2×) and 160 and 156
[2]; Day 52
  tumour volume, individual animals: 0 (3×) and 144
[2]; Day 55
  tumour volume, individual animals: 0 (3×) and 87
[2]; Day 59, in mm³ (unit assumed)
  tumour volume, individual animals: 144 and 155 and 220 and 196
[2]; Day 63, in mm³ (unit assumed)
  tumour volume, individual animals: 388 and 353 and 396 and 530
[2]; Day 66, in mm³ (unit assumed)
  tumour volume, individual animals: 257 and 221 and 387 and 438
[2]; Day 69, in mm³ (unit assumed)
  tumour volume, individual animals: 351 and 316 and 514 and 702
[2]; Day 73, in mm³ (unit assumed)
  tumour volume, individual animals: 1003 and 568 and 1069 and 1242
[2]; RS4;11 tumours, IV, 10 mg/kg or equivalent
  anti-tumour activity: complete regression
[2]; 10 mg/kg or equivalent, day 29, in mm³ (unit assumed)
  Tumour volume, Geo Mean: 450.827
[2]; 10 mg/kg or equivalent, day 31, in mm³ (unit assumed)
  Tumour volume, Geo Mean: 419.877
[2]; 10 mg/kg or equivalent, day 32, in mm³ (unit assumed)
  Tumour volume, Geo Mean: 128.263
[2]; 10 mg/kg or equivalent, day 34, in mm³ (unit assumed)
  Tumour volume, Geo Mean: 1
[2]; 10 mg/kg or equivalent, day 38, in mm³ (unit assumed)
  Tumour volume, Geo Mean: 1
[2]; 10 mg/kg or equivalent, day 41, in mm³ (unit assumed)
  Tumour volume, Geo Mean: 1
[2]; 10 mg/kg or equivalent, day 45, in mm³ (unit assumed)
  Tumour volume, Geo Mean: 1
[2]; 10 mg/kg or equivalent, day 48, in mm³ (unit assumed)
  Tumour volume, Geo Mean: 1
[2]; 10 mg/kg or equivalent, day 56, in mm³ (unit assumed)
  Tumour volume, Geo Mean: 4.217
[2]; 10 mg/kg or equivalent, day 59, in mm³ (unit assumed)
  Tumour volume, Geo Mean: 31.9033
[3]; 0.5 h, 10 mg/kg
  CC3 PD fold over vehicle, individual tumours: 36.58 fold over vehicle and 31.76 fold over vehicle
[3]; 1 h, 10 mg/kg
  CC3 PD fold over vehicle, individual tumours: 36.44 fold over vehicle and 36.82 fold over vehicle
[3]; 5 h, 10 mg/kg
  CC3 PD fold over vehicle, individual tumours: 42.22 fold over vehicle and 39.06 fold over vehicle
[3]; 24 h, 10 mg/kg
  CC3 PD fold over vehicle, individual tumours: 21.02 fold over vehicle and 47.67 fold over vehicle
[3]; [5]
  time of onset of CC3 activation: ≤ 0.5 h
[3]; RS4;11 tumours, 10 mg/kg, by 5 h, sustained for 24 h
  maximal activation of cleaved caspase-3 (CC3): 40 fold
[4]; rat, 10 mg/kg AZD4320
  decrease in QRS amplitude: 40%
[4]; rat, 10 mg/kg AZD4320, 8 rats evaluated
  rats in which dose was tolerated: 6 of the 8
[4]; [6]
  QRS amplitude (mV change): 0 mV
  QRS amplitude (mV change), Mean: 0 mV
[4]; rat, AZD4320 10 mg/kg, 0.5 h post dose, 10 mg/kg
  QRS amplitude (mV change): 0.05 mV and -0.49 mV (2×) and -0.03 mV and 0.27 mV and -0.09 mV
[4]; rat, AZD4320 10 mg/kg, 0.5 h post dose
  QRS amplitude (mV change), Mean: -0.13 mV
[4]; rat, AZD4320 10 mg/kg, 1 h post dose, 10 mg/kg
  QRS amplitude (mV change): -0.55 mV and -0.92 mV and 0.04 mV and -0.24 mV and -0.19 mV and -0.87 mV
[4]; rat, AZD4320 10 mg/kg, 1 h post dose
  QRS amplitude (mV change), Mean: -0.46 mV
[4]; rat, AZD4320 10 mg/kg, 1.5 h post dose, 10 mg/kg
  QRS amplitude (mV change): -0.76 mV and -0.96 mV (2×) and 0.29 mV and -0.3 mV and -0.18 mV
[4]; rat, AZD4320 10 mg/kg, 1.5 h post dose
  QRS amplitude (mV change), Mean: -0.48 mV
[4]; rat, AZD4320 10 mg/kg, 2 h post dose, 10 mg/kg
  QRS amplitude (mV change): -0.73 mV and -0.96 mV and -0.38 mV and -0.26 mV (2×) and -1.03 mV
[4]; rat, AZD4320 10 mg/kg, 2 h post dose
  QRS amplitude (mV change), Mean: -0.60 mV
[4]; rat, AZD4320 10 mg/kg, 3 h post dose, 10 mg/kg
  QRS amplitude (mV change): -0.79 mV and -0.63 mV and -0.28 mV and -0.4 mV and -0.48 mV and -0.99 mV
[4]; rat, AZD4320 10 mg/kg, 3 h post dose
  QRS amplitude (mV change), Mean: -0.60 mV
[4]; rat, AZD4320 10 mg/kg, 3.5 h post dose, 10 mg/kg
  QRS amplitude (mV change): -0.8 mV and -0.81 mV and -0.54 mV and -0.38 mV and -0.47 mV and -1 mV
[4]; rat, AZD4320 10 mg/kg, 3.5 h post dose
  QRS amplitude (mV change), Mean: -0.67 mV
[4]; rat, AZD4320 10 mg/kg, 4 h post dose, 10 mg/kg
  QRS amplitude (mV change): -0.8 mV and -1.02 mV and -0.16 mV and -0.35 mV and -0.65 mV and -0.98 mV
[4]; rat, AZD4320 10 mg/kg, 4 h post dose
  QRS amplitude (mV change), Mean: -0.66 mV
[4]; rat, AZD4320 10 mg/kg, 6 h post dose, 10 mg/kg
  QRS amplitude (mV change): -0.76 mV and -1 mV and -0.2 mV and -0.16 mV and -0.57 mV and -0.7 mV
[4]; rat, AZD4320 10 mg/kg, 6 h post dose
  QRS amplitude (mV change), Mean: -0.57 mV
[4]; rat, AZD4320 10 mg/kg, 8 h post dose, 10 mg/kg
  QRS amplitude (mV change): -0.63 mV (3×) and 0.08 mV and -0.08 mV and -0.57 mV
[4]; rat, AZD4320 10 mg/kg, 8 h post dose
  QRS amplitude (mV change), Mean: -0.41 mV
[4]; rat, AZD4320 10 mg/kg, 10 h post dose, 10 mg/kg
  QRS amplitude (mV change): -0.56 mV and -0.75 mV and 0.54 mV and 0.03 mV and -0.61 mV and -0.59 mV
[4]; rat, AZD4320 10 mg/kg, 10 h post dose
  QRS amplitude (mV change), Mean: -0.32 mV
[4]; rat, AZD4320 10 mg/kg, 12 h post dose, 10 mg/kg
  QRS amplitude (mV change): -0.6 mV and -0.97 mV and -0.25 mV and 0.18 mV and -0.42 mV and -0.58 mV
[4]; rat, AZD4320 10 mg/kg, 12 h post dose
  QRS amplitude (mV change), Mean: -0.44 mV
[4]; rat, AZD4320 10 mg/kg, 16 h post dose, 10 mg/kg
  QRS amplitude (mV change): -0.44 mV and -0.8 mV and 0.61 mV and -0.14 mV and -0.6 mV and -0.72 mV
[4]; rat, AZD4320 10 mg/kg, 16 h post dose
  QRS amplitude (mV change), Mean: -0.35 mV
[4]; rat, AZD4320 10 mg/kg, 24 h post dose, 10 mg/kg
  QRS amplitude (mV change): -0.56 mV and -0.96 mV and -0.74 mV and -0.13 mV and -0.57 mV and -0.76 mV
[4]; rat, AZD4320 10 mg/kg, 24 h post dose
  QRS amplitude (mV change), Mean: -0.62 mV
[4]; rat, AZD4320 10 mg/kg, […] post dose
  QRS amplitude (mV change), Mean: -0.58 mV
[4]; [7]
  Blood pressure decrease: Yes
  QRS amplitude decrease: Yes
  Tolerated?: 6/8
[4]; telemetered rat, AZD4320 10 mg/kg, conjugates 30 mg/kg IV
  effect on QRS amplitude: marked and prolonged reduction in QRS amplitude
